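Method: 48-hour compound exposure of cells in 96-well plates, five concentrations, linear interpolation of endpoints. At the GI50, growth is halved.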 Activity calls are given as the source filed them. Cut-off read from the data, not from the text of the source: active = GI50 up to about 1.1 µM and inactive = higher.
Experiments:
Assay in all cases: NCI anticancer screen, dose series, 48 h
[1] = test system: HT-29
[2] = test system: LOX IMVI
[3] = test system: SNB-19
[4] = test system: SK-MEL-5
[5] = test system: RXF 393
[6] = test system: MOLT-4
[7] = test system: HOP-62
[8] = test system: MDA-N
[9] = test system: SW-620
[10] = test system: NCI-H522
[11] = test system: DU-145
[12] = test system: ACHN
[13] = test system: SK-MEL-2
[14] = test system: COLO 205
[15] = test system: TK-10
[16] = test system: NCI-H23
[17] = test system: HCC 2998
[18] = test system: M14
[19] = test system: OVCAR-8
[20] = test system: SF-295
[21] = test system: IGROV-1
[22] = test system: UACC-62
[23] = test system: HCT-15
[24] = test system: T47D
[25] = test system: SF-268
[26] = test system: K562
[27] = test system: MCF7
[28] = test system: HOP-92
[29] = test system: CCRF-CEM
[30] = test system: OVCAR-4
[31] = test system: SR
[32] = test system: PC-3
[33] = test system: SNB-75
[34] = test system: EKVX
[35] = test system: SN12C
[36] = test system: CAKI-1
[37] = test system: HL-60
[38] = test system: NCI-H460
[39] = test system: NCI/ADR-RES
[40] = test system: SF-539
[41] = test system: BT-549
[42] = test system: RPMI-8226
[43] = test system: SK-MEL-28
[44] = test system: U-251
[45] = test system: MDA-MB-435
[46] = test system: OVCAR-3
[47] = test system: KM12
[48] = test system: UO-31
[49] = test system: UACC-257
[50] = test system: 786-0
[51] = test system: HCT-116
[52] = test system: NCI-H226
[53] = test system: OVCAR-5
[54] = test system: SK-OV-3
[55] = test system: A498
[56] = test system: Hs-578T

**Q.** For COc1ccc(C2CC(=O)CC(c3ccc(OC)cc3)C23C(=O)NC(=S)NC3=O)cc1 (stereo unspecified), which GI50 [1] is on record?
**A.** > 100 µM (inactive)

**Q.** What about the GI50 [2] of the same compound?
**A.** > 100 µM (inactive)

**Q.** What about the GI50 [3] of the same compound?
**A.** > 100 µM (inactive)

**Q.** What about the GI50 [4] of the same compound?
**A.** > 100 µM (inactive)

**Q.** And the GI50 [5]?
**A.** > 100 µM (inactive)

**Q.** And the GI50 [6]?
**A.** > 100 µM (inactive)

**Q.** And the GI50 [7]?
**A.** > 100 µM (inactive)

**Q.** What about the GI50 [8] of the same compound?
**A.** > 100 µM (inactive)

**Q.** What about the GI50 [9] of the same compound?
**A.** > 100 µM (inactive)

**Q.** And the GI50 [10]?
**A.** > 100 µM (inactive)

**Q.** And the GI50 [11]?
**A.** > 100 µM (inactive)

**Q.** What about the GI50 [12] of the same compound?
**A.** > 100 µM (inactive)

**Q.** What about the GI50 [13] of the same compound?
**A.** > 100 µM (inactive)

**Q.** And the GI50 [14]?
**A.** > 100 µM (inactive)

**Q.** What about the GI50 [15] of the same compound?
**A.** > 100 µM (inactive)

**Q.** And the GI50 [16]?
**A.** > 100 µM (inactive)

**Q.** What about the GI50 [17] of the same compound?
**A.** > 100 µM (inactive)

**Q.** And the GI50 [18]?
**A.** > 100 µM (inactive)

**Q.** And the GI50 [19]?
**A.** > 100 µM (inactive)

**Q.** What about the GI50 [20] of the same compound?
**A.** > 100 µM (inactive)

**Q.** What about the GI50 [21] of the same compound?
**A.** > 100 µM (inactive)

**Q.** What about the GI50 [22] of the same compound?
**A.** > 100 µM (inactive)

**Q.** What about the GI50 [23] of the same compound?
**A.** > 100 µM

**Q.** And the GI50 [24]?
**A.** > 100 µM (inactive)

**Q.** And the GI50 [25]?
**A.** > 100 µM (inactive)

**Q.** And the GI50 [26]?
**A.** > 100 µM (inactive)

**Q.** And the GI50 [27]?
**A.** > 100 µM (inactive)

**Q.** And the GI50 [28]?
**A.** > 100 µM (inactive)

**Q.** What about the GI50 [29] of the same compound?
**A.** > 100 µM (inactive)

**Q.** And the GI50 [30]?
**A.** > 100 µM (inactive)

**Q.** What about the GI50 [31] of the same compound?
**A.** > 100 µM (inactive)

**Q.** What about the GI50 [32] of the same compound?
**A.** > 100 µM (inactive)

**Q.** What about the GI50 [33] of the same compound?
**A.** > 100 µM (inactive)

**Q.** And the GI50 [34]?
**A.** > 100 µM (inactive)

**Q.** What about the GI50 [35] of the same compound?
**A.** > 100 µM (inactive)

**Q.** And the GI50 [36]?
**A.** > 100 µM (inactive)

**Q.** And the GI50 [37]?
**A.** > 100 µM (inactive)

**Q.** And the GI50 [38]?
**A.** > 100 µM (inactive)

**Q.** What about the GI50 [39] of the same compound?
**A.** > 100 µM (inactive)

**Q.** What about the GI50 [40] of the same compound?
**A.** > 100 µM (inactive)

**Q.** What about the GI50 [41] of the same compound?
**A.** > 100 µM (inactive)

**Q.** What about the GI50 [42] of the same compound?
**A.** > 10 µM (inactive)

**Q.** And the GI50 [43]?
**A.** > 100 µM (inactive)

**Q.** And the GI50 [44]?
**A.** > 100 µM (inactive)

**Q.** And the GI50 [45]?
**A.** > 100 µM (inactive)

**Q.** And the GI50 [46]?
**A.** > 100 µM (inactive)

**Q.** What about the GI50 [47] of the same compound?
**A.** > 100 µM (inactive)

**Q.** What about the GI50 [48] of the same compound?
**A.** > 100 µM (inactive)

**Q.** And the GI50 [49]?
**A.** > 100 µM (inactive)

**Q.** What about the GI50 [50] of the same compound?
**A.** > 100 µM (inactive)

**Q.** And the GI50 [51]?
**A.** > 100 µM (inactive)

**Q.** And the GI50 [52]?
**A.** > 100 µM (inactive)

**Q.** And the GI50 [53]?
**A.** > 100 µM (inactive)

**Q.** What does the source list for Clc1ccc2sc(-n3ccc4ccccc43)nc2c1?
**A.** GI50 [1]: 75.9 µM (inactive); GI50 [2]: > 100 µM (inactive); GI50 [3]: 24.2 µM (inactive); GI50 [4]: > 100 µM (inactive); GI50 [5]: 13.3 µM (inactive); GI50 [6]: 55.7 µM (inactive); GI50 [54]: > 100 µM (inactive); GI50 [9]: > 100 µM (inactive); GI50 [12]: > 100 µM (inactive); GI50 [15]: > 100 µM (inactive); GI50 [16]: 45.7 µM (inactive); GI50 [17]: > 100 µM (inactive); GI50 [19]: > 100 µM (inactive); GI50 [21]: > 100 µM (inactive); GI50 [22]: > 100 µM (inactive); GI50 [23]: > 100 µM; GI50 [25]: > 100 µM (inactive); GI50 [26]: 97.1 µM (inactive); GI50 [27]: 26.1 µM (inactive); GI50 [29]: > 100 µM (inactive); GI50 [32]: 67.6 µM (inactive); GI50 [33]: 49.3 µM (inactive); GI50 [34]: > 100 µM (inactive); GI50 [35]: > 100 µM (inactive); GI50 [38]: > 100 µM (inactive); GI50 [39]: > 100 µM (inactive); GI50 [41]: 84.3 µM (inactive); GI50 [43]: > 100 µM (inactive); GI50 [44]: > 100 µM (inactive); GI50 [55]: > 100 µM (inactive); GI50 [48]: > 100 µM (inactive); GI50 [53]: > 100 µM (inactive); GI50 [56]: 72.6 µM (inactive)
